Results as given in patent EP0119449A1, “Aminopyrazoline derivatives” (THE WELLCOME FOUNDATION LIMITED, priority 1983, dated 1984).
Where a name gives a salt, the structure may show the parent alone.

Tests used:
[1] = target: Cyclooxygenase; test: Enzyme assay, inhibition of cyclooxygenase (method closely based on Borgeat et al); format: biochemical
[2] = system: Prostaglandin E2 concentrations in sponge exudates; test: Prostaglandin synthesis in carrageenin sponge inflammatory exudate; format: in vivo; conditions: Rattus norvegicus, po; male rats, sponges impregnated with 2% carrageenin, exudates collected 24 hours after implantation; read-out: ED50 (mg/kg p.o.) Prostaglandin Production (rat)
Experimental: (§1) The compound of Example 1 was subjected to the following tests. Results are given in Table II as ED50 mg/kg upon oral administration. Results are also provided by way of comparison for the compound 3-methylamino-1-(3-trifluoromethylphenyl)-2-pyrazoline (Compound A) which is disclosed in European Specification 55 418.
(§2) Inflammatory exudates were collected 24 hours after the subcutaneous implantation in male rats (180-220g) of sterile polyester sponges impregnated with 2% carrageenin. Prostaglandin E2 concentrations in sponge exudates were measured by bioassay and total leucocyte numbers were estimated using counting chambers and phase contrast microscopy. Drugs were administered orally in aqueous solution to groups of five animals at the time of sponge implantation, 5-8 hours later and 3 hours before sponge removal. Results are expressed as a percentage of control values obtained from similar groups of animals receiving vehicle alone. ED50 values were calculated for active compounds. The full dose-response data for lead compounds were subjected to regression analysis and ED50 values with 95% confidence limits have been obtained.

[3] = system: total leucocyte numbers; test: Leucocyte accumulation in carrageenin sponge inflammatory exudate; format: in vivo; conditions: Rattus norvegicus, po, male rats, sponges impregnated with 2% carrageenin, exudates collected 24 hours after implantation, read-out: ED50 (mg/kg p.o.) Leucocyte Migration (rat)
Experimental: as §1, §2

[4] = system: Carrageenin Oedema; test: Carrageenin-induced hind paw oedema; format: in vivo; conditions: Rattus norvegicus, po; female rats, sub-plantar 2% carrageenin, swelling measured 1-4 hours after injection
Experimental: as §1
Oedema was induced by the sub-plantar injection of 2% carrageenin (0.1 ml) in the hind paws of female rats (100-i30g). Swelling was measured 1-4 hours following carrageenin injection using a micrometer gauge. Drugs in aqueous solution were administered orally to groups of five rats at the time of carrageenin injection. Mean swelling was expressed as a percentage of control values obtained from similar groups of animals receiving vehicle alone.

[5] = system: PBQ Writhing; test: Phenylbenzoquinone (PBQ) induced writhing (pain); format: in vivo; conditions: Mus musculus, po; p.o. 1 hour before PBQ 2.5 mg/kg i.p.; female mice
Experimental: as §1
Writhing was induced in groups of 5 female mice (20-25g) following the intraperitoneal injection of phenylbenzoquinone (PBQ; 2.5 mg/kg). Anti-nociceptive effects of drugs were assessed by observing the reduction in writhing responses 10-12½ min after PBQ injection. Drugs were administered orally in aqueous solution 1 hour before PBQ injection and drug effects were expressed as a percentage of control values obtained from animals receiving vehicle alone.

[6] = Toxicity: ulcerogenicity; format: in vivo; conditions: rat, doses in the range 50-100 mg/kg

SMILES | IC50 [1] [µM] | ED50 [2] [mg/kg] | ED50 [3] [mg/kg] | ED50 [4] [mg/kg] | ED50 [5] [mg/kg] | ulcerogenic [6]
CSc1cccc(N2CCC(N)=N2)c1 [Example 1, 3-amino-1-(3-methylthiophenyl)-2-pyrazoline] | 4.7 | 14 | 6.5 | 20 | 15 | not to be ulcerogenic
C#CCNC1=NN(c2cccc(SC)c2)CC1 [Example 7, 1-(3-Methylthiophenyl)-3-(2-propynylamino)-2-pyrazoline hydrochloride] | > 1 | – | – | – | – | –
CNC1=NN(c2cccc(C(F)(F)F)c2)CC1 [Compound A, 3-methylamino-1-(3-trifluoromethylphenyl)-2-pyrazoline, reference compound] | – | 20 | 20 | 26 | 20 | –
CNC1=NN(c2cccc(SC)c2)CC1 [Example 3, 3-methylamino-1-(3-methylthiophenyl)-2-pyrazoline hydrobromide] | 10 | – | – | – | – | –
